Source: patent publication US10039747B2, “Tetrahydrocyclopentapyrrole derivatives and a method for preparing the same” (Daewoong Pharmaceutical Co., Ltd., priority 2013, dated 2018)

molecular target: T1, H+/K+-ATPase (Sus scrofa, UniProt P19156); assay: Inhibition of proton pump (H+/K+-ATPase) activity in hog gastric vesicles; type: biochemical; conditions: K+ specific H+/K+-ATPase activity, pH 7.4, 37° C. for 40 minutes, malachite green
T1 construct: reaction buffer solution (60 mmol/l Tris-HCl buffer solution, pH 7.4) containing hog gastric vesicle; from tissue; host or cells: hog stomach (gastric vesicles, by centrifugation after Rabon et al. 1988)
T1 sequence (P19156 2-1034 limits assumed): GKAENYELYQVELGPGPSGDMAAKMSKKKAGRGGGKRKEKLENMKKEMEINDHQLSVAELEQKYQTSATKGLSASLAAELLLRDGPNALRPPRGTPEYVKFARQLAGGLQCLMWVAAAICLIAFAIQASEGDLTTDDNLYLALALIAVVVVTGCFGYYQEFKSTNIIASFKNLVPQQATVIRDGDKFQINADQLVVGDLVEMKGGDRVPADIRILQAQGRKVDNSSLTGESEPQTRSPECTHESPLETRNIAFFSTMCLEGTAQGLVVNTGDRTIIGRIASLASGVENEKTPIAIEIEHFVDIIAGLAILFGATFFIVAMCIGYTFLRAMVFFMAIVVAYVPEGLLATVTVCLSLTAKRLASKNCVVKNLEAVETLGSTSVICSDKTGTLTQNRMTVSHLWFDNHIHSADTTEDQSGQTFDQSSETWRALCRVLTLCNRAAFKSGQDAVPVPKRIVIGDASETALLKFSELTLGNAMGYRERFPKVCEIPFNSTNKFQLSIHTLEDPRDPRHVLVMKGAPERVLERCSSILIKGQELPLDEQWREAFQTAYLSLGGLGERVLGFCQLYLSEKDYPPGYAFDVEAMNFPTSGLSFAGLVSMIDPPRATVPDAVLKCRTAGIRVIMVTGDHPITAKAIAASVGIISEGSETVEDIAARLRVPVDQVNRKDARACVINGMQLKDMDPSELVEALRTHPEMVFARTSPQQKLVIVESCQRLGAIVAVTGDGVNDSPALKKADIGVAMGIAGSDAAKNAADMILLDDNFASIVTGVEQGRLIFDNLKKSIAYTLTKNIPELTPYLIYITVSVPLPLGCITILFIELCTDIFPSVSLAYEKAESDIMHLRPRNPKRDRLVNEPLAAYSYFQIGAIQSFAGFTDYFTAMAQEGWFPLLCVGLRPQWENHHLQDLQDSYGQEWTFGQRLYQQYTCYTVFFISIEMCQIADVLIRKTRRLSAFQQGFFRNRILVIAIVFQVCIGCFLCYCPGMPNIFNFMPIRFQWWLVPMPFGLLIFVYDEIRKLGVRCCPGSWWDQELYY
T1 sequence (P18434 whole entry partner): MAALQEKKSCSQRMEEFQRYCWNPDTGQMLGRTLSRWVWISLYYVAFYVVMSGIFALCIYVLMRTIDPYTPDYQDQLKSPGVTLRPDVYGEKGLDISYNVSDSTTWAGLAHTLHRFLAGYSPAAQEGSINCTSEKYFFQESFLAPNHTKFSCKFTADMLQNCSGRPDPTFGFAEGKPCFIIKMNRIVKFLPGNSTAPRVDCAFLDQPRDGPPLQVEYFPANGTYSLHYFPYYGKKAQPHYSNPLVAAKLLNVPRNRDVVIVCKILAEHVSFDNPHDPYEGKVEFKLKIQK
Method: 1) Preparation of Gastric Vesicles
Gastric vesicles were prepared from hog stomach by centrifugation (Edd C. Rabon et al., Preparation of Gastric H^+,K^+-ATPase, Methods in enzymology, vol. 157 Academic Press Inc., (1988), pp. 649-654). The protein contents of the prepared gastric vesicles were quantified with a Bicinchoninic Acid (BCA) kit.
2) Measurement of Effect of Inhibiting Proton Pump (H^+/K^+-ATPase) Activity
The effect of inhibiting proton pump activity by the compound of the present invention was measured in a 96-well plate. In this experiment, K^+ specific H^+/K^+-ATPase activity was calculated based on the difference between H^+/K^+-ATPase activity in the presence of K^+ ions and H^+/K^+-ATPase activity in the absence of K^+ ions. In the 96-well plate, to negative and positive control groups, 0.5% dimethylsulfoxide (DMSO) in buffer was added, and to the test groups, the compound of the present invention was added. All the analyses were conducted at room temperature with the reaction volume of 100 μl. To a reaction buffer solution (60 mmol/l Tris-HCl buffer solution, pH 7.4) containing hog gastric vesicle, DMSO and each concentration of compound were added, and then, 10 μl of a 10 mmol/l adenosine triphosphate tris buffer solution (60 mmol/l Tris-HCl buffer solution, pH 7.4) was added to initiate an enzyme reaction. The enzyme reaction was conducted at 37° C. for 40 minutes, 50 μl of a malachite green solution (0.12% malachite green solution, 5.8% ammonium molybdate and 11% tween 20 were mixed at a ratio of 100:67:2 in 6.2 N sulfuric acid) was added to stop the reaction, and 50 μl of 15.1% sodium citrate was added. During the reaction, the amount of monophosphate (Pi) was measured at 570 nm using micro plate reader (FLUOstar Omega, BMG Company). Inhibition rate (%) was measured from the activity values of the control groups and the activity values of various concentrations of the test compound, and IC50 of the test compound was calculated from each % inhibition value of the compound using Logistic 4-parameter function of Sigmaplot 8.0 program.

`CNC1CCc2c1cn(S(=O)(=O)c1cc(Cl)cc(Cl)c1)c2-c1ccc(C)cc1F` (centres unmarked) [Example 78, 2-((3,5-dichlorophenyl)sulfonyl)-1-(2-fluoro-4-methylphenyl)-N-methyl-2,4,5,6-tetrahydrocyclopenta[c]pyrrol-4-amine] and `CNC1CCc2c1cn(S(=O)(=O)c1cccc(Cl)c1)c2-c1ccc(C)cc1F` (centres unmarked) [Example 18, 2-((3-chlorophenyl)sulfonyl)-1-(2-fluoro-4-methylphenyl)-N-methyl-2,4,5,6-tetrahydrocyclopenta[c]pyrrol-4-amine] are within 1.5-fold of each other in IC50: 460 nM for the first, 430 nM for the second.

`CNC1CCc2c1cn(S(=O)(=O)c1cccnc1)c2-c1cc(Cl)cc(C)c1F` (centres unmarked) [Example 93, 1-(5-chloro-2-fluoro-3-methylphenyl)-N-methyl-2-(pyridin-3-ylsulfonyl)-2,4,5,6-tetrahydrocyclopenta[c]pyrrol-4-amine] and `CNC1CCc2c1cn(S(=O)(=O)c1cccnc1)c2-c1ccsc1` (centres unmarked) [Example 94, N-methyl-2-(pyridin-3-ylsulfonyl)-1-(thiophen-3-yl)-2,4,5,6-tetrahydrocyclopenta[c]pyrrol-4-amine] are within 1.5-fold of each other in IC50: 340 nM for the first, 470 nM for the second.

First: CNC1CCc2c1cn(S(=O)(=O)c1cc(C)cnc1Cl)c2-c1ccccc1F (centres unmarked) [Example 100, 2-((2-chloro-5-methylpyridin-3-yl)sulfonyl)-1-(2-fluorophenyl)-N-methyl-2,4,5,6-tetrahydrocyclopenta[c]pyrrol-4-amine]
Second: CNC1CCc2c1cn(S(=O)(=O)c1cc(Cl)c(Cl)cc1Cl)c2-c1ccccc1F (centres unmarked) [Example 84, 1-(2-fluorophenyl)-N-methyl-2-((2,4,5-trichlorophenyl)sulfonyl)-2,4,5,6-tetrahydrocyclopenta[c]pyrrol-4-amine]
The IC50 of the first is 19-fold higher: 7240 nM for the first, 390 nM for the second.

`CNC1CCc2c1cn(S(=O)(=O)c1cccc(Cl)c1)c2-c1cc(Cl)cc(Cl)c1` (centres unmarked) [Example 25, 2-((3-chlorophenyl)sulfonyl)-1-(3,5-dichlorophenyl)-N-methyl-2,4,5,6-tetrahydrocyclopenta[c]pyrrol-4-amine] and `CNC1CCc2c1cn(S(=O)(=O)c1cccc(Cl)c1)c2-c1ccc(Cl)cc1Cl` (centres unmarked) [Example 21, 2-((3-chlorophenyl)sulfonyl)-1-(2,4-dichlorophenyl)-N-methyl-2,4,5,6-tetrahydrocyclopenta[c]pyrrol-4-amine] are within 1.5-fold of each other in IC50: 790 nM for the first, 900 nM for the second.

Compared with `CNC1CCc2c1cn(S(=O)(=O)c1ccc(F)cc1)c2-c1ccc(C)cc1F` (centres unmarked) [Example 60, 1-(2-fluoro-4-methylphenyl)-2-((4-fluorophenyl)sulfonyl)-N-methyl-2,4,5,6-tetrahydrocyclopenta[c]pyrrol-4-amine], `CNC1CCc2c1cn(S(=O)(=O)c1ccccc1)c2-c1ccc(C)cc1F` (centres unmarked) [Example 44, 1-(2-fluoro-4-methylphenyl)-N-methyl-2-(phenylsulfonyl)-2,4,5,6-tetrahydrocyclopenta[c]pyrrol-4-amine] is 1.5-fold higher in IC50: 420 nM for the first, 650 nM for the second.

Compared with `CNC1CCc2c1cn(S(=O)(=O)c1cccc(Cl)c1)c2-c1cccnc1C(F)(F)F` (centres unmarked) [Example 38], `CNC1CCc2c1cn(S(=O)(=O)c1cccc(Cl)c1)c2-c1cccc(C(F)(F)F)c1` (centres unmarked) [Example 10, 2-((3-chlorophenyl)sulfonyl)-N-methyl-1-(3-(trifluoromethyl)phenyl)-2,4,5,6-tetrahydrocyclopenta[c]pyrrol-4-amine] is 6-fold lower in IC50: 5820 nM for the first, 970 nM for the second. The second is the more potent here.

First: CNC1CCc2c1cn(S(=O)(=O)c1cc(C(F)(F)F)ccc1Cl)c2-c1ccccc1F (centres unmarked) [Example 74, 2-((2-chloro-5-(trifluoromethyl)phenyl)sulfonyl)-1-(2-fluorophenyl)-N-methyl-2,4,5,6-tetrahydrocyclopenta[c]pyrrol-4-amine]
Second: CNC1CCc2c1cn(S(=O)(=O)c1c(Cl)cc(Cl)cc1Cl)c2-c1ccccc1F (centres unmarked) [Example 85, 1-(2-fluorophenyl)-N-methyl-2-((2,4,6-trichlorophenyl)sulfonyl)-2,4,5,6-tetrahydrocyclopenta[c]pyrrol-4-amine]
The IC50 of the first is 4.2-fold lower: 520 nM for the first, 2190 nM for the second. The first is the more potent here.

`COc1cccc(S(=O)(=O)n2cc3c(c2-c2ccccc2F)CCCC3N(C)C)c1` (centres unmarked) [Example 140, 1-(2-fluorophenyl)-2-((3-methoxyphenyl)sulfonyl)-N,N-dimethyl-4,5,6,7-tetrahydro-2H-isoindole-4-amine] and `Cc1cccc(S(=O)(=O)n2cc3c(c2-c2ccccc2F)CCCC3N(C)C)c1` (centres unmarked) [Example 137, 1-(2-fluorophenyl)-N,N-dimethyl-2-(m-tolylsulfonyl)-4,5,6,7-tetrahydro-2H-isoindole-4-amine] are within 1.5-fold of each other in IC50: 7000 nM for the first, 6000 nM for the second.

`CNC1CCc2c1cn(S(=O)(=O)c1cc(Cl)ccc1Cl)c2-c1cc(Cl)ccc1Cl` (centres unmarked) [Example 73, 1-(2,5-dichlorophenyl)-2-((2,5-dichlorophenyl)sulfonyl)-N-methyl-2,4,5,6-tetrahydrocyclopenta[c]pyrrol-4-amine] and `CNC1CCc2c1cn(S(=O)(=O)c1cc(Cl)cc(Cl)c1)c2-c1cc(Cl)ccc1Cl` (centres unmarked) [Example 79, 1-(2,5-dichlorophenyl)-2-((3,5-dichlorophenyl)sulfonyl)-N-methyl-2,4,5,6-tetrahydrocyclopenta[c]pyrrol-4-amine] are within 1.5-fold of each other in IC50: 670 nM for the first, 770 nM for the second.

`CNC1CCc2c1cn(S(=O)(=O)c1cccc(Cl)c1)c2-c1ccccc1C` (centres unmarked) [Example 4, 2-((3-chlorophenyl)sulfonyl)-N-methyl-1-(o-tolyl)-2,4,5,6-tetrahydrocyclopenta[c]pyrrol-4-amine] and `CNC1CCc2c1cn(S(=O)(=O)c1cccc(Cl)c1)c2-c1ccccc1Cl` (centres unmarked) [Example 5, 1-(2-chlorophenyl)-2-((3-chlorophenyl)sulfonyl)-N-methyl-2,4,5,6-tetrahydrocyclopenta[c]pyrrol-4-amine] are within 1.5-fold of each other in IC50: 610 nM for the first, 740 nM for the second.

Compared with `CNC1CCc2c1cn(S(=O)(=O)c1cccc(Cl)c1)c2Cc1ccccc1` (centres unmarked) [Example 27, 1-benzyl-2-((3-chlorophenyl)sulfonyl)-N-methyl-2,4,5,6-tetrahydrocyclopenta[c]pyrrol-4-amine], `CNC1CCc2c1cn(S(=O)(=O)c1cccc(Cl)c1)c2-c1ccccc1` (centres unmarked) [Example 3, 2-((3-chlorophenyl)sulfonyl)-N-methyl-1-phenyl-2,4,5,6-tetrahydrocyclopenta[c]pyrrol-4-amine] is 16-fold lower in IC50: 7010 nM for the first, 450 nM for the second.

Going from `CNC1CCc2c1cn(S(=O)(=O)c1cccc(Cl)c1)c2-c1cnn(C)c1` (centres unmarked) [Example 30, 2-((3-chlorophenyl)sulfonyl)-N-methyl-1-(1-methyl-1H-pyrazol-4-yl)-2,4,5,6-tetrahydrocyclopenta[c]pyrrol-4-amine] to `CNC1CCCc2c1cn(S(=O)(=O)c1cccc(Cl)c1)c2-c1cncnc1` (centres unmarked) [Example 129, 2-((3-chlorophenyl)sulfonyl)-N-methyl-1-(pyrimidin-5-yl)-4,5,6,7-tetrahydro-2H-isoindole-4-amine], the IC50 rises from 1040 nM to 40000 nM (38-fold). The first is the more potent here.

First: CNC1CCc2c1cn(S(=O)(=O)c1cccc(Cl)c1)c2-c1ccc2occc2c1 (centres unmarked) [Example 29, 1-(benzofuran-5-yl)-2-((3-chlorophenyl)sulfonyl)-N-methyl-2,4,5,6-tetrahydrocyclopenta[c]pyrrol-4-amine]
Second: CNC1CCc2c1cn(S(=O)(=O)c1cccc(Cl)c1)c2-c1ccc(F)cc1F (centres unmarked) [Example 19, 2-((3-chlorophenyl)sulfonyl)-1-(2,4-difluorophenyl)-N-methyl-2,4,5,6-tetrahydrocyclopenta[c]pyrrol-4-amine]
The IC50 of the first is 4.6-fold higher: 1280 nM for the first, 280 nM for the second.

First: CNC1CCc2c1cn(S(=O)(=O)c1cccc(Cl)c1)c2-c1ccc(N2CCCC2)nc1 (centres unmarked) [Example 40]
Second: CNC1CCc2c1cn(S(=O)(=O)c1cccc(Cl)c1)c2-c1ccccc1N1CCOCC1 (centres unmarked) [Example 7]
The IC50 of the first is 5.2-fold lower: 7690 nM for the first, 40000 nM for the second. The first is the more potent here.

First: CN(C)C1CCCc2c1cn(S(=O)(=O)c1cccc(C(F)(F)F)c1)c2-c1ccccc1F (centres unmarked) [Example 139, 1-(2-fluorophenyl)-N,N-dimethyl-2-((3-(trifluoromethyl)phenyl)sulfonyl)-4,5,6,7-tetrahydro-2H-isoindole-4-amine]
Second: CNC1CCc2c1cn(S(=O)(=O)c1ccc(Oc3ccccc3)nc1)c2-c1ccccc1F (centres unmarked) [Example 96, 1-(2-fluorophenyl)-N-methyl-2-((6-phenoxypyridin-3-yl)sulfonyl)-2,4,5,6-tetrahydrocyclopenta[c]pyrrol-4-amine]
The IC50 of the first is 11-fold higher: 9070 nM for the first, 800 nM for the second. The second is the more potent here.

Compared with `CNC1CCc2c1cn(S(=O)(=O)c1cc(Cl)c(Cl)cc1Cl)c2-c1ccc(C)cc1F` (centres unmarked) [Example 82, 1-(2-fluoro-4-methylphenyl)-N-methyl-2-((2,4,5-trichlorophenyl)sulfonyl)-2,4,5,6-tetrahydrocyclopenta[c]pyrrol-4-amine], `CNC1CCc2c1cn(S(=O)(=O)c1nccn1C)c2-c1ccccc1F` (centres unmarked) [Example 101, 1-(2-fluorophenyl)-N-methyl-2-((1-methyl-1H-imidazol-2-yl)sulfonyl)-2,4,5,6-tetrahydrocyclopenta[c]pyrrol-4-amine] is 28-fold higher in IC50: 660 nM for the first, 18700 nM for the second.
